Entries after “also recorded” stand apart in the source; their conditions may differ.
Experiments:
[1] = tested on: A172 human glioma cells; experiment: MTT cytotoxicity assay, A172 cells; format: cell-based; settings: A-172 cells, 48 hours
From the text: (§1) In vitro efficacy of the present composition can be determined using methods well known in the art. For example, the cytotoxicity of the present monoterpene (or sesquiterpene) and/or the therapeutic agents may be studied by MTT [3-(4,5-dimethylthiazol-2-yl)-2,5-diphenyl tetrazolium bromide] cytotoxicity assay. MTT assay is based on the principle of uptake of MTT, a tetrazolium salt, by metabolically active cells where it is metabolized into a blue colored formazan product, which can be read spectrometrically. J. of Immunological Methods 65: 55 63, 1983. The cytotoxicity of the present monoterpene (or sesquiterpene) derivative and/or the therapeutic agents may be studied by colony formation assay. Functional assays for inhibition of VEGF secretion and IL-8 secretion may be performed via ELISA. Cell cycle block by the present monoterpene (or sesquiterpene) derivative and/or the therapeutic agents may be studied by standard propidium iodide (PI) staining and flow cytometry. Invasion inhibition may be studied by Boyden chambers. In this assay a layer of reconstituted basement membrane, Matrigel, is coated onto chemotaxis filters and acts as a barrier to the migration of cells in the Boyden chambers. Only cells with invasive capacity can cross the Matrigel barrier. Other assays include, but are not limited to cell viability assays, apoptosis assays, and morphological assays. […]

[2] = tested on: U87 human glioma cells; experiment: MTT cytotoxicity assay, U87 cells; format: cell-based; settings: U-87 cells, 48 hours
From the text: as §1

[3] = tested on: U251 human glioma cells; experiment: MTT cytotoxicity assay, U251 cells
From the text: (§2) In vitro efficacy of the present composition can be determined using methods well known in the art. For example, the cytotoxicity of the present monoterpene (or sesquiterpene) and/or the therapeutic agents may be studied by MTT [3-(4,5-dimethylthiazol-2-yl)-2,5-diphenyl tetrazolium bromide] cytotoxicity assay. MTT assay is based on the principle of uptake of MTT, a tetrazolium salt, by metabolically active cells where it is metabolized into a blue colored formazan product, which can be read spectrometrically. J. of Immunological Methods 65: 55 63, 1983. The cytotoxicity of the present monoterpene (or sesquiterpene) derivative and/or the therapeutic agents may be studied by colony formation assay. Functional assays for inhibition of VEGF secretion and IL-8 secretion may be performed via ELISA. Cell cycle block by the present monoterpene (or sesquiterpene) derivative and/or the therapeutic agents may be studied by standard propidium iodide (PI) staining and flow cytometry. Invasion inhibition may be studied by Boyden chambers. In this assay a layer of reconstituted basement membrane, Matrigel, is coated onto chemotaxis filters and acts as a barrier to the migration of cells in the Boyden chambers. Only cells with invasive capacity can cross the Matrigel barrier. Other assays include, but are not limited to cell viability assays, apoptosis assays, and morphological assays.
(§3) To compare the cytotoxicity of Rolipram POH Carbamate (POH-Rolipram) (e.g., synthesized by the method in Example 5) with rolipram, […] inducing differentiation and apoptosis in glioma cells, A172, U87, U251 and LN229 human glioma cells were treated with either POH-Rolipram or rolipram for 48 hours.
(§4) MTT cytotoxicity assays were carried out after cells were treated with the TMZ-POH conjugate. The MTT cytotoxicity assays were carried out as described in Chen T C, et al. Green tea epigallocatechin gallate enhances therapeutic efficacy of temozolomide in orthotopic mouse glioblastoma models. Cancer Lett. 2011 Mar. 28; 302(2):100-8.

[4] = tested on: LN229 human glioma cells; experiment: cells
From the text: as §2, §3

[5] = tested on: A172, U87, U251 and LN229 human glioma cells; experiment: MTT assay, POH-Rolipram versus rolipram across glioma cell types (stated jointly); format: cell-based; settings: each of A172, U87, U251, LN229; 48 hours
From the text: as §1

[6] = tested on: subcutaneous U-87 gliomas; experiment: Nude mouse subcutaneous glioma model; format: in vivo; settings: local application via Q-tip, 1 cc/application/day, 8 weeks; 60 days
Method: Inhibition of tumor growth by butyryl-POH was studied in a nude mouse subcutaneous glioma model. Mice were injected with U-87 glioma cells (500,000 cells/injection) and allowed to form a palpable nodule over two weeks. Once palpable nodule was formed, the mice were treated with local application of various compounds as indicated in FIGS. 9A and 9B via a Q-tip (1 cc/application/day) over a period of 8 weeks.

[7] = tested on: human malignant glioma cells U87, A172 and U251; experiment: MTT cytotoxicity assays on U87, A172 and U251 cells (stated jointly); format: cell-based
Method: J. of Immunological Methods 65: 55 63, 1983. […] Invasion inhibition may be studied by Boyden chambers.
Then U87, A172 and U251 cells were treated with dimethyl celecoxib bisPOH carbamate (POH-DMC) (e.g., synthesized by the method in Example 1), and the MTT cytotoxicity assays performed (FIG. 2).
Then TMZ-resistant glioma cell lines U87, A172 and U251 cells were treated with temozolomide POH carbamate (POH-TMZ) (e.g., synthesized by the method in Example 3).

[8] = tested on: TMZ sensitive (U251) cells; experiment: Colony forming assay, TMZ sensitive U251 cells; format: cell-based, human
Method: (§5) Colony forming assays were carried out after cells were treated with TMZ alone, POH alone, and the TMZ-POH conjugate. […] Cancer Lett. 2011 Mar. 28; 302(2):100-8.

[9] = tested on: TMZ resistant (U251TR) U251 cells; experiment: Colony forming assay, TMZ resistant U251TR cells; format: cell-based, human
Method: as §5

[10] = tested on: TMZ resistant cells (U251TR); experiment: MTT cytotoxicity assay, U251TR cells
Method: as §4

[11] = tested on: normal astrocytes; experiment: MTT cytotoxicity assay, normal astrocytes; settings: listed as TMZ-POH
Method: as §4

[12] = tested on: brain endothelial cells (BEC); experiment: MTT cytotoxicity assay, brain endothelial cells; format: cell-based
From the text: (§6) Cancer Lett. 2011 Mar. 28; 302(2):100-8.

[13] = tested on: tumor brain endothelial cells (TuBEC); experiment: MTT cytotoxicity assay, tumor brain endothelial cells; format: cell-based
From the text: as §6

[14] = tested on: USC-04 glioma cancer stem cells; experiment: MTT cytotoxicity assay, USC-04 glioma cancer stem cells; format: cell-based; settings: USC-04, MTT
From the text: as §6

[15] = tested on: USC-02 glioma cancer stem cells; experiment: MTT cytotoxicity assay, USC-02 glioma cancer stem cells; format: cell-based; settings: USC-02, MTT
From the text: as §6

[16] = tested on: ER stress (CHOP) in TMZ sensitive and resistant U251 glioma cells; experiment: Western blot of ER stress in U251 glioma cells; format: cell-based, human; settings: 18 hr
Method: Western blots were performed after TMZ sensitive and resistant glioma cells were treated with the TMZ-POH conjugate for 18 hr. […] Activation of the proapoptotic protein CHOP was shown at concentrations as low as 60 uM of TMZ-POH.

SMILES: C=C(C)C1CC=C(COC(=O)N2CC(c3ccc(OC)c(OC4CCCC4)c3)CC2=O)CC1 (stereo not shown) [POH-rolipram, 4-(3-cyclopentyloxy-4-methoxyphenyl)-2-oxo-pyrrolidine-1-carboxylic acid 4-isopropenyl cyclohex-1-enylmethyl ester]
- IC50 [1]: 50 µM
- IC50 [2]: 180 µM
- cytotoxicity at 100 uM [3]: ~100%
- IC50 ([3]; U251 cells, MTT, 48 hours): 50 µM
- cytotoxicity at 10 uM [4]: ~100%
- IC50 ([4]; LN229 cells, MTT, 48 hours): 100 µM
- kill rates (MTT) [5]: substantially higher kill rates compared to rolipram alone

SMILES: C=C(C)C1CC=C(COC(=O)CCC)CC1 (stereo not shown) [Butyryl-POH]
- inhibition of tumor growth [6]: greatest inhibition of tumor growth

SMILES: C=C(C)C1CC=C(COC(=O)NC(=O)c2ncn3c(=O)n(C)nnc23)CC1 (stereo not shown) [POH-TMZ]
- cytotoxicity (MTT) ([3]; TMZ sensitive U251 cells, Example 9): demonstrated cytotoxicity
- cytotoxicity / kill rates (MTT) [7]: substantially higher kill rates
- cytotoxicity (colony forming assay) ([8]; TMZ sensitive U251 cells): demonstrated cytotoxicity
- potency in the colony forming assays compared to POH alone ([8]; U251 and U251TR cells): substantially greater potency compared to POH alone
- cytotoxicity (colony forming assay) [9]: demonstrated cytotoxicity
- cytotoxicity (MTT) [10]: demonstrated cytotoxicity
- cytotoxicity (MTT) [11]: not towards normal astrocytes; also recorded: did not induce significant cytotoxicity
- cytotoxicity (MTT) ([12]; confluent BEC): did not induce significant cytotoxicity
- cytotoxicity (MTT) ([12]; subconfluent BEC, high concentrations): Mild to moderate cytotoxicity
- cytotoxicity (MTT) [13]: did not induce significant cytotoxicity
- IC50 [14]: 150 µM
- IC50 [15]: 60 µM
- ER stress (ERS) induction ([16]; TMZ sensitive and resistant U251 cells): induces ER stress
- lowest concentration showing activation of the proapoptotic protein CHOP ([16]; western blot): 60 µM

— patent US20240197891A1, “PHARMACEUTICAL COMPOSITIONS COMPRISING POH DERIVATIVES” (UNIVERSITY OF SOUTHERN CALIFORNIA, priority 2021, published 2024)
